Assay results published in patent publication US4091006A, “Esters of 3-hydroxyindone compounds” (priority 1975, dated 1978).

How the values were obtained:
[1] = system: egg of the two-spotted mite; experiment: Mite Ovicide Test; assay type: in vivo, Tetranychus urticae (Koch); parameters: key to Mite Ova rating: 1: no mortality; 3: an approximately 50% mortality; 5: 100% mortality; details: spray on eggs, 4 days
From the text: (§1) The test procedures were as follows:
The plants were allowed to dry thoroughly.
(§2) Compositions were rated on the basis of percent kill with a rating of 1 indicating no mortality; 3 signifying an approximately 50% mortality and 5 indicating 100% mortality at the indicated dosage.

[2] = system: adults and nymphal stages of the two-spotted mite; experiment: Mite Foliage Spray Test; assay type: in vivo, Tetranychus urticae (Koch); parameters: key: 1: no mortality; 3: an approximately 50% mortality; 5: 100% mortality; details: 4 days
From the text: as §1, §2

[3] = system: Perennial rye grass, crabgrass, red root pigweed, mustard; experiment: Preliminary Herbicide Seed Germination Test; details: each rated 1 (no injury) to 5 (no seedlings emerged)
[4] = rating/maximum 20: 100 ppm only, four species
[5] = rating/maximum 15: 100 ppm only, crabgrass omitted
[6] = rating/maximum 40: 100 and 1000 ppm, four species, 10-12 days
[7] = rating/maximum 30: 100 and 1000 ppm, crabgrass omitted

Which results are given for `Cc1cc(C)c(C2=C(OC(=O)N(C)c3ccccc3)c3ccccc3C2=O)c(C)c1` [2-(2',4',6'-Trimethylphenyl)-3-(N-methyl-N-phenylcarbamoyloxy)indone]?
Mite Ova rating [1]: 3 (an approximately 50% mortality); Mite Adult rating [2]: 1; Herbicide (total preemergence rating) [3, 4]: 10/20

Which results are given for `Cc1cc(C)c(C(=O)OC2=C(c3c(C)cc(C)cc3C)C(=O)c3ccccc32)c(C)c1` [3-(2,4,6-Trimethylbenzoyloxy)-2-(2',4',6'-trimethylphenyl)indone]?
Mite Ova rating [1]: 1; Mite Adult rating [2]: 1; Herbicide (total preemergence rating) [3, 5]: 10/15

For `CCCCCCCCCCCCCCCCCC(=O)OC1=C(c2ccc(C)cc2C)C(=O)c2ccccc21` [2-(2',4'-Dimethylphenyl)-3-(stearoyloxy)indone], which “Mite Ova rating” value [1] is on record?
Its value is 5 (100% mortality).

What about the “Mite Adult rating” value [2] of the same molecule?
The value was 3 (an approximately 50% mortality).

What about the “Herbicide (total preemergence rating)” value [3, 4] of the same molecule?
The value was 14/20.

Which “Mite Ova rating” value [1] does the source give for “2-(2',6'-Dichlorophenyl)-5(6)-methyl-3-(pivaloyloxy)indone” here?
Its value is 5 (100% mortality).

And the “Mite Adult rating” value [2]?
The value was 5 (100% mortality).

What about the “Herbicide (total preemergence rating)” value [3, 6] of the same molecule?
Its value is 24/40.

`Cc1cccc(C)c1C1=C(OC(=O)C(C)(C)C)c2ccccc2C1=O` [2-(2',6'-Dimethylphenyl)-3-(pivaloyloxy)indone] was tested. Which “Mite Ova rating” value [1] did it give?
Its value is 5 (100% mortality).

What about the “Mite Adult rating” value [2] of the same molecule?
The value was 5 (100% mortality).

What about the “Herbicide (total preemergence rating)” value [3, 6] of the same molecule?
The value was 31/40.

Which results are given for `CCCCC(CC)C(=O)OC1=C(c2cccc3ccccc23)C(=O)c2ccccc21` (stereo not drawn) [3-(2-Ethylhexanoyloxy)-2-(1-Naphthyl)indone]?
Mite Ova rating [1]: 1; Mite Adult rating [2]: 1; Herbicide (total preemergence rating) [3, 4]: 14/20

Which results are given for `O=C(OC1=C(c2c(Cl)cccc2Cl)C(=O)c2ccccc21)c1cc(Cl)cc(Cl)c1` [3-(3,5-Dichlorobenzoyloxy)-2-(2',6'-dichlorophenyl)indone]?
Mite Ova rating [1]: 5 (100% mortality); Mite Adult rating [2]: 5 (100% mortality); Herbicide (total preemergence rating) [3, 7]: 24/30

With `Cc1cc(C)c(C2=C(OC(=O)c3cc(Cl)cc(Cl)c3)c3ccccc3C2=O)c(C)c1` [3-(3,5-Dichlorobenzoyloxy)-2-(2',4',6'-trimethylphenyl)indone] as the molecule, how does the “Mite Ova rating” value [1] read?
The value was 5 (100% mortality).

What about the “Mite Adult rating” value [2] of the same molecule?
The value was 5 (100% mortality).

What about the “Herbicide (total preemergence rating)” value [3, 7] of the same molecule?
Its value is 23/30.

Which results are given for `Cc1cc(C)c(C2=C(OC(=O)c3cccs3)c3ccccc3C2=O)c(C)c1` [2-(2',4',6'-Trimethylphenyl)-3-(2-thenoyloxy)indone]?
Mite Ova rating [1]: 5 (100% mortality); Mite Adult rating [2]: 5 (100% mortality); Herbicide (total preemergence rating) [3, 4]: 18/20

Which results are given for `O=C(OC1=C(c2c(Cl)cccc2Cl)C(=O)c2ccccc21)c1cccc([N+](=O)[O-])c1` [3-(3-Nitrobenzoyloxy)-2-(2',6'-dichlorophenyl)indone]?
Mite Ova rating [1]: 5 (100% mortality); Mite Adult rating [2]: 5 (100% mortality); Herbicide (total preemergence rating) [3, 7]: 26/30

`COc1cccc(OC)c1C(=O)OC1=C(c2c(C)cc(C)cc2C)C(=O)c2ccccc21` [3-(2,6-Dimethoxybenzoyloxy)-2-(2',4',6'-trimethylphenyl)indone] was tested. Which “Mite Ova rating” value [1] did it give?
Its value is 1.

What about the “Mite Adult rating” value [2] of the same molecule?
The value was 1.

And the “Herbicide (total preemergence rating)” value [3, 4]?
Its value is 4/20.

With `CCc1cccc(CC)c1C1=C(OC(=O)C(C)(C)C)c2ccccc2C1=O` [2-(2',6'-Diethylphenyl)-3-(pivaloyloxy)indone] as the molecule, how does the “Mite Ova rating” value [1] read?
The value was 5 (100% mortality).

What about the “Mite Adult rating” value [2] of the same molecule?
Its value is 5 (100% mortality).

What about the “Herbicide (total preemergence rating)” value [3, 5] of the same molecule?
The value was 12/15.

With `O=C(OC1=C(c2c(Cl)cccc2Cl)C(=O)c2ccccc21)c1ccccc1` [3-(Benzoyloxy)-2-(2',6'-dichlorophenyl)indone] as the molecule, how does the “Mite Ova rating” value [1] read?
The value was 5 (100% mortality).

What about the “Mite Adult rating” value [2] of the same molecule?
Its value is 5 (100% mortality).

What about the “Herbicide (total preemergence rating)” value [3, 6] of the same molecule?
Its value is 32/40.

For `CCCCCCCCCCCCCCCC(=O)OC1=C(c2ccccc2C)C(=O)c2ccccc21` [2-(2'-Methylphenyl)-3-(palmitoyloxy)indone], which “Mite Ova rating” value [1] is on record?
The value was 5 (100% mortality).

And the “Mite Adult rating” value [2]?
Its value is 3 (an approximately 50% mortality).

And the “Herbicide (total preemergence rating)” value [3, 4]?
Its value is 4/20.

With `O=C(OC1=C(c2c(Cl)cccc2Cl)C(=O)c2ccccc21)c1ccc([N+](=O)[O-])cc1` [3-(4-Nitrobenzoyloxy)-2-(2',6'-dichlorophenyl)indone] as the molecule, how does the “Mite Ova rating” value [1] read?
The value was 5 (100% mortality).

What about the “Mite Adult rating” value [2] of the same molecule?
The value was 5 (100% mortality).

And the “Herbicide (total preemergence rating)” value [3, 7]?
Its value is 25/30.

What does the source list for `Cc1cc(C)c(C2=C(OC(=O)Cc3ccccc3)c3ccccc3C2=O)c(C)c1` [2-(2',4',6'-Trimethylphenyl)-3-(phenylacetoxy)indone]?
Mite Ova rating [1]: 5 (100% mortality); Mite Adult rating [2]: 5 (100% mortality); Herbicide (total preemergence rating) [3, 4]: 19/20

Which results are given for `O=C1C(c2c(Cl)cccc2Cl)=C(OC(=O)c2c(Cl)ccc(Cl)c2Cl)c2ccccc21` [3-(2,3,6-Trichlorobenzoyloxy)-2-(2',6'-dichlorophenyl)indone]?
Mite Ova rating [1]: 5 (100% mortality); Mite Adult rating [2]: 5 (100% mortality); Herbicide (total preemergence rating) [3, 6]: 20/40

What does the source list for `Cc1cccc(C(=O)OC2=C(c3c(C)cc(C)cc3C)C(=O)c3ccccc32)c1` [3-(3-Methylbenzoyloxy)-2-(2',4',6'-trimethylphenyl)indone]?
Mite Ova rating [1]: 5 (100% mortality); Mite Adult rating [2]: 5 (100% mortality); Herbicide (total preemergence rating) [3, 6]: 26/40

Which results are given for `O=C(OC1=C(c2ccccc2)C(=O)c2ccccc21)c1ccccc1` [2-Phenyl-3-(benzoyloxy)indone]?
Mite Ova rating [1]: 1; Mite Adult rating [2]: 1; Herbicide (total preemergence rating) [3, 4]: 4/20

Which “Mite Ova rating” value [1] does the source give for `CCCCCCCCCCCCCCCC(=O)OC1=C(c2ccc(C(C)C)cc2)C(=O)c2ccccc21` [2-(4'-isopropylphenyl)-3-(palmitoyloxy)indone] here?
The value was 1.

What about the “Mite Adult rating” value [2] of the same molecule?
The value was 1.

And the “Herbicide (total preemergence rating)” value [3, 4]?
The value was 4/20.

`CCCC(=O)OC1=C(c2c(C)cc(C)cc2C)C(=O)c2ccccc21` [2-(2',4',6'-Trimethylphenyl)-3-(butyryloxy)indone] was tested. Which “Mite Ova rating” value [1] did it give?
The value was 5 (100% mortality).

What about the “Mite Adult rating” value [2] of the same molecule?
Its value is 5 (100% mortality).

What about the “Herbicide (total preemergence rating)” value [3, 5] of the same molecule?
Its value is 15/15.

Which results are given for `CSCC(=O)OC1=C(c2c(C)cc(C)cc2C)C(=O)c2ccccc21` [2-(2',4',6'-Trimethylphenyl)-3-(methylthioacetoxy)indone]?
Mite Ova rating [1]: 5 (100% mortality); Mite Adult rating [2]: 5 (100% mortality); Herbicide (total preemergence rating) [3, 4]: 19/20

Which “Mite Ova rating” value [1] does the source give for `CC(C)(C)C(=O)OC1=C(c2ccccc2C(F)(F)F)C(=O)c2ccccc21` [2-(2'-Trifluoromethylphenyl)-3-pivaloyloxy indone] here?
Its value is 1.

And the “Mite Adult rating” value [2]?
The value was 1.

What about the “Herbicide (total preemergence rating)” value [3, 4] of the same molecule?
The value was 4/20.

How did the “Mite Ova rating” value [1] turn out when `COc1cccc(C(=O)OC2=C(c3c(C)cc(C)cc3C)C(=O)c3ccccc32)c1` [3-(3-Methoxybenzoyloxy)-2-(2',4',6'-trimethylphenyl)indone] was run?
The value was 5 (100% mortality).

What about the “Mite Adult rating” value [2] of the same molecule?
Its value is 5 (100% mortality).

What about the “Herbicide (total preemergence rating)” value [3, 7] of the same molecule?
The value was 25/30.

With `CNC(=O)N(C)C(=O)OC1=C(c2c(C)cc(C)cc2C)C(=O)c2ccccc21` [2-(2',4',6'-Trimethylphenyl)-3-(2,4-dimethylallophanoyloxy)indone] as the molecule, how does the “Mite Ova rating” value [1] read?
The value was 5 (100% mortality).

What about the “Mite Adult rating” value [2] of the same molecule?
Its value is 1.

What about the “Herbicide (total preemergence rating)” value [3, 4] of the same molecule?
Its value is 16/20.

With `Cc1cc(C)c(NC(=O)OC2=C(c3c(C)cc(C)cc3C)C(=O)c3ccccc32)c(C)c1` [2-(2',4',6'-Trimethylphenyl)-3-(N-(2,4,6-Trimethylphenyl)-carbamoyloxy)indone] as the molecule, how does the “Mite Ova rating” value [1] read?
Its value is 5 (100% mortality).

And the “Mite Adult rating” value [2]?
Its value is 5 (100% mortality).

And the “Herbicide (total preemergence rating)” value [3, 4]?
Its value is 4/20.

For `Cc1ccccc1C1=C(OC(=O)C(C)(C)C)c2ccccc2C1=O` [2-(2'-Methylphenyl)-3-(pivaloyloxy)indone], which “Mite Ova rating” value [1] is on record?
Its value is 5 (100% mortality).

And the “Mite Adult rating” value [2]?
Its value is 5 (100% mortality).

And the “Herbicide (total preemergence rating)” value [3, 6]?
The value was 20/40.

With `Cc1cc(C)c(C2=C(OC(=O)c3ccc(Cl)cc3Cl)c3ccccc3C2=O)c(C)c1` [3-(2,4-Dichlorobenzoyloxy)-2-(2',4',6'-trimethylphenyl)indone] as the molecule, how does the “Mite Ova rating” value [1] read?
The value was 5 (100% mortality).

And the “Mite Adult rating” value [2]?
Its value is 5 (100% mortality).

What about the “Herbicide (total preemergence rating)” value [3, 6] of the same molecule?
Its value is 32/40.

`Cc1cc(C)c(C2=C(OC(=O)c3c(C)cccc3C)c3ccccc3C2=O)c(C)c1` [3-(2,6-Dimethylbenzoyloxy)-2-(2',4',6'-trimethylphenyl)indone] was tested. Which “Mite Ova rating” value [1] did it give?
Its value is 1.

And the “Mite Adult rating” value [2]?
The value was 1.

What about the “Herbicide (total preemergence rating)” value [3, 4] of the same molecule?
Its value is 4/20.
